From US10583162B2, “Compositions useful in the prevention and/or treatment of osteoarticular inflammation and pain and cartilage damage” (Indena S.P.A., priority 2016, dated 2020)

Columns and labels:
[1] = test system: patients suffering from joint disease of the knee with constant pain; assay: Analgesic activity on analogue pain scale 0 to 10 (Example 6); format: in vivo, Humans; conditions: second day
Text: 40 patients suffering from joint disease of the knee with constant pain were randomised and treated with two tablets a day, one in the morning and one in the evening, of the composition of example 4, or a placebo (consisting of the carrier only), or the ingredients of the composition of example 1 added individually to the placebo formulation in amounts equal to those present in the composition of example 4.
Efficacy was scored on an international analogue pain scale with scores from 0 to 10, 10 points indicating maximum pain and 0 the disappearance of pain. The effect was evaluated on the second day after administration of the tablet, in the morning 60 and 120 minutes after treatment.

[2] = test system: patients with osteoarthritis, mainly located in the knee; assay: Blinded study vs piroxicam and placebo, analgesic effect on WOMAC scale (Example 5); format: in vivo, Humans
Text: The analgesic activity of a composition according to the invention comprising Vitis vinifera extract complexed with phospholipids, lipophilic extract of Zingiber officinale, lipophilic extract of Zanthoxylum piperitum and an unsaponifiable fraction of Olea europaea was compared with the activity of piroxicam and a placebo. In a blinded study conducted on 180 patients with osteoarthritis, mainly located in the knee, the composition of example 1 was compared with piroxicam and a placebo by conducting a three-month treatment after randomisation, and check-ups on the joint function for six months after discontinuance of the treatment. At the beginning, the analgesic effect, measured with the Western Ontario and McMaster University Osteoarthritis (WOMAC) scale, was evaluated after 7 days' treatment with two capsules/day of the composition of example 1 vs. two […] capsules of piroxicam or placebo. After the first 7 days, the treatment continued for three months, the analgesic effect being measured once a month.

SMILES	Pain (scores) at time 60 min. ([1]; 60 minutes after treatment)	Pain (scores) at time 120 min. ([1]; 120 minutes after treatment)	Pain (scores) at time 0 ([1]; time 0 (before the morning tablet))	result (analgesic effect, WOMAC scale) ([2]; 4th month, after discontinuance of the treatment) [%+/−38]	result (analgesic effect, WOMAC scale) ([2]; 5th month, after discontinuance of the treatment) [%+/−23]	efficacy maintained after discontinuance of the treatment ([2]; double-blind trial, after discontinuance)	result (analgesic effect, WOMAC scale) ([2]; during the third month's treatment, two capsules/day) [%+/−31.4]	tolerability ([2]; three-month treatment)	analgesic effect (comparison of the two treated groups) ([2]; three-month treatment, WOMAC)
CC(=O)Oc1cccc2c1C(=O)c1c(OC(C)=O)cc(C(=O)O)cc1C2=O [Diacerein, diacerein]	8.2 ± 0.9	7.9 ± 0.8	9.1 ± 1.5						
CN1C(C(=O)Nc2ccccn2)=C(O)c2ccccc2S1(=O)=O [piroxicam]				−41	−24	needed to continue the treatment	−72	had to be discontinued due to evident side effects	comparable analgesic effect
